Laboratory results reported in paper PMC12408343, “Deep learning reveals antibiotics in the archaeal proteome” (Nature Microbiology, 2025).
≈ marks a conversion by molar mass, not a printed value. Peptide text beside a SMILES is read from it.

What was measured:
A. baumannii ATCC 19606 = experiment: microbe, parasite or virus in culture
Method: (§1) Briefly, 10^5 bacterial cells were incubated with serially diluted EPs (0–64 μmol l^−1) at 37 °C. Bacterial growth was assessed by measuring the optical density at 600 nm in a microplate reader at 1 day post-treatment. […] Secondary structure fractions were calculated using the BeStSel server. fH and fβ stand for helical and β fractions, respectively.

[1] = tested on: E. faecium ATCC 700221 (VRE); experiment: microbe, parasite or virus in culture; details: for MIC E. faecium ATCC 700221 – VRE (+): ATCC 700221, 24 h; for MIC, E. faecium ATCC 700221 - VRE (+): Fig 2a source data, Gram-positive, broth microdilution
Method: as §1

A. baumannii = experiment: Cytoplasmic membrane fluidity, Laurdan generalized polarization; format: cell-based, Acinetobacter baumannii; details: peptides at 100× MIC stock diluted 1:100, 30 min, λex 350, λem 440/490 nm; mean of 3 independent experiments
Text: Fig. 4 Mechanism of action, haemolytic activity and cytotoxicity of antibiotics from the archaeome. […] The fluorescence probe NPN was used to assess membrane permeabilization (a) induced by the tested EPs (Extended Data Fig. 6a). The fluorescence probe DiSC3-5 was used to evaluate membrane depolarization (b) caused by archaeasins (Extended Data Fig. 6b). The shown values represent the relative fluorescence of both probes, with nonlinear fitting compared with the baseline of the untreated control (buffer + bacteria + fluorescence dye) and benchmarked against the antibiotics polymyxin B and levofloxacin. c, Laurdan generalized polarization over time in A. baumannii treated with archaeasins. […] Higher generalized polarization values indicate increased membrane rigidity, whereas lower values reflect increased membrane fluidity. Benzyl alcohol was used as a positive control for membrane fluidization, and untreated cells served as a negative control. […] All experiments were performed in three independent replicates (Extended Data Fig. 7). The protein and peptide structures depicted in panels a and b were created with PyMOL Molecular Graphics System, v.3.0 (Schrödinger).

[2] = tested on: E. coli AIC222 (colistin-resistant, CRE); experiment: microbe, parasite or virus in culture; parameters: MIC, E. coli AIC222 - CRE (-): unit not given beside the values; details: Fig 2a source data; Gram-negative, CRE; broth microdilution
Method: as §1

K. pneumoniae ATCC 13883 = experiment: microbe, parasite or virus in culture; details: for MIC K. pneumoniae ATCC 13883 (−): ATCC 13883, 24 h; for MIC, K. pneumoniae ATCC 13883 (-): Fig 2a source data, Gram-negative, broth microdilution
Method: as §1

E. coli AIC221 = experiment: microbe, parasite or virus in culture; parameters: MIC, E. coli AIC221 (-): unit not given beside the values; details: for MIC E. coli AIC221 (−): AIC221, 24 h; for MIC, E. coli AIC221 (-): Fig 2a source data, Gram-negative, broth microdilution
Method: as §1

E. coli ATCC 11775 = experiment: microbe, parasite or virus in culture; parameters: MIC, E. coli ATCC 11775 (-): unit not given beside the values; details: for MIC, E. coli ATCC 11775 (-): Fig 2a source data, Gram-negative, broth microdilution
Method: as §1

[3] = tested on: human red blood cells (RBCs); details: for HC50 (source data of Fig. 4) / HC50, peptide concentration leading to 50% RBC lysis: red cells of human, 4 h
Method: To assess the potential toxicity of the synthesized archaeasins, we exposed them to human red blood cells (RBCs), a common method for evaluating the toxicity of antimicrobial agents[20],[26],[27].
To evaluate the release of haemoglobin from human erythrocytes upon treatment of each of the EPs, human RBCs were obtained from Zen-Bio (donor, blood type A^−) obtained from heparin anti-coagulated blood. RBCs were washed with PBS (pH 7.4) 4× by centrifugation at 800g for 10 min. Aliquots of 200-fold-diluted cells (75 μl) were mixed with peptide solution (0.78–100 μmol l^−1; 75 μl), and the mixture was incubated for 4 h at room temperature. After incubation, the plate was centrifuged at 1,300g for 10 min to precipitate cells and debris, and 100 μl of supernatant from each well was transferred to a new 96-well plate for absorbance reading (405 nm) using an automatic plate reader. The percentage of haemolysis was defined by comparison with negative control (samples containing PBS) and positive control (samples containing 1% (v/v) SDS in PBS solution). Haemolysis(%)=100×(absorbance405nmpeptide−absorbance405nmnegativecontrol)/(absorbance405nmpositivecontrol−absorbance405nmnegativecontrol)
All assays were performed in three independent biological replicates as indicated in each figure legend and in the Methods. […] In the skin abscess and thigh infection mouse models, we used six mice per group following established protocols approved by the University Laboratory of Animal Resources of the University of Pennsylvania.
Extended Data Fig. 7 Hemolytic activity of archaeasins. Hemolytic activity was assessed by exposing red blood cells to archaeasins, with lysis determined by absorbance readings after 4 h. The peptides were added to plates and subjected to a two-fold dilution series (ranging from 64 to 4 μmol L^−1) before exposure to the red blood cells. Source data

S. aureus ATCC 12600 = experiment: microbe, parasite or virus in culture
Method: as §1

P. aeruginosa PA14 = experiment: microbe, parasite or virus in culture; parameters: MIC, P. aeruginosa PA14 (-): unit not given beside the values
Method: as §1

P. aeruginosa PAO1 = experiment: microbe, parasite or virus in culture; parameters: MIC, P. aeruginosa PAO1 (-): unit not given beside the values
Method: as §1

[4] = tested on: S. aureus ATCC BAA-1556 (MRSA); experiment: microbe, parasite or virus in culture; parameters: MIC, S. aureus ATCC BAA-1556 - MRSA (+): unit not given beside the values
Method: as §1

[5] = Fig 2a source data, Gram-negative, broth microdilution

| Compound | MIC, A. baumannii ATCC 19606 (-) (A. baumannii ATCC 19606) | MIC E. faecium ATCC 700221 – VRE (+) [1] | MIC, E. faecium ATCC 700221 - VRE (+) [1] | Laurdan generalized polarization change of cytoplasmic membrane (A. baumannii) | MIC, E. coli AIC222 - CRE (-) [2] | MIC K. pneumoniae ATCC 13883 (−) (K. pneumoniae ATCC 13883) | MIC, K. pneumoniae ATCC 13883 (-) (K. pneumoniae ATCC 13883) | MIC E. coli AIC221 (−) (E. coli AIC221) | MIC, E. coli AIC221 (-) (E. coli AIC221) | MIC, E. coli ATCC 11775 (-) (E. coli ATCC 11775) | HC50 (source data of Fig. 4) [3] | HC50, peptide concentration leading to 50% RBC lysis [3] | also measured |
| --- | --- | --- | --- | --- | --- | --- | --- | --- | --- | --- | --- | --- | --- |
| CC[C@H](C)[C@H](N)C(=O)N[C@@H](CC(C)C)C(=O)NCC(=O)NCC(=O)N[C@@H](CCCCN)C(=O)N[C@@H](CC(C)C)C(=O)N[C@H](C(=O)N[C@@H](CCCCN)C(=O)N[C@@H](CCCCN)C(=O)N[C@@H](CO)C(=O)N[C@@H](CC(C)C)C(=O)N[C@@H](CCCCN)C(=O)N[C@@H](CC(C)C)C(=O)O)[C@@H](C)CC [Archaeasin-21] (H-ILGGKLIKKSLKL-OH; N-terminus and C-terminus assumed) | 64 | 64 µM (≈ 90.3 µg/mL) | 64 | only modest or even decreasing generalized polarization shifts | 64 |  |  |  |  |  |  |  |  |
| CC[C@H](C)[C@H](N)C(=O)NCC(=O)N[C@@H](Cc1c[nH]c2ccccc12)C(=O)N[C@H](C(=O)N[C@@H](CO)C(=O)N[C@@H](CC(N)=O)C(=O)N[C@@H](CCCNC(=N)N)C(=O)N[C@H](C(=O)N[C@H](C(=O)N[C@@H](CC(C)C)C(=O)N[C@@H](CCCCN)C(=O)N[C@@H](CC(C)C)C(=O)N[C@@H](CC(C)C)C(=O)N[C@@H](CCCNC(=N)N)C(=O)N[C@@H](Cc1ccccc1)C(=O)N[C@@H](C)C(=O)N[C@@H](CCCCN)C(=O)N[C@@H](CC(N)=O)C(=O)N[C@@H](CCSC)C(=O)N[C@@H](CCCCN)C(=O)O)[C@@H](C)CC)C(C)C)[C@@H](C)CC [Archaeasin-22] (H-IGWISNRVILKLLRFAKNMK-OH; N-terminus and C-terminus assumed) | 1 |  |  | only modest or even decreasing generalized polarization shifts | 4 | 16 µM (≈ 38.4 µg/mL) | 16 | 2 µM (≈ 4.8 µg/mL) | 2 | 16 | 7.224 µmol/L | 7 µmol/L | MIC E. coli ATCC 11775 (−) (E. coli ATCC 11775; ATCC 11775, 24 h): 16 µM (≈ 38.4 µg/mL) |
| CC[C@H](C)[C@H](NC(=O)[C@H](Cc1c[nH]c2ccccc12)NC(=O)[C@H](CCCCN)NC(=O)[C@H](CC(C)C)NC(=O)[C@H](CCCNC(=N)N)NC(=O)[C@H](C)NC(=O)[C@H](CCCNC(=N)N)NC(=O)[C@H](C)NC(=O)[C@H](CC(C)C)NC(=O)[C@H](Cc1c[nH]c2ccccc12)NC(=O)[C@@H](N)CC(C)C)C(=O)N[C@H](C(=O)O)[C@@H](C)O [Archaeasin-57] (H-LWLARARLKWIT-OH; N-terminus and C-terminus assumed) | 16 | 8 µM (≈ 12.2 µg/mL) | 8 | pronounced increases in generalized polarization values over time | 64 |  |  | 64 µM (≈ 97.7 µg/mL) | 64 |  | 203.9 µmol/L |  |  |
| CC[C@H](C)[C@H](NC(=O)[C@H](CC(C)C)NC(=O)[C@H](CC(C)C)NC(=O)[C@H](CCCNC(=N)N)NC(=O)[C@H](C)NC(=O)[C@H](CC(C)C)NC(=O)[C@H](Cc1ccc(O)cc1)NC(=O)CNC(=O)[C@H](C)NC(=O)CN)C(=O)N[C@@H](CCCNC(=N)N)C(=O)N[C@@H](CCCNC(=N)N)C(=O)N[C@@H](CO)C(=O)N[C@@H](CC(C)C)C(=O)N[C@@H](CCCNC(=N)N)C(=O)N[C@@H](CC(C)C)C(=O)N[C@@H](CC(C)C)C(=O)N[C@@H](CCCNC(=N)N)C(=O)N[C@@H](CCCNC(=N)N)C(=O)N[C@@H](CC(C)C)C(=O)O [Archaeasin-78] (H-GAGYLARLLIRRSLRLLRRL-OH; N-terminus and C-terminus assumed) | 1 | 1 µM (≈ 2.37 µg/mL) | 1 | pronounced increases in generalized polarization values over time | 4 | 4 µM (≈ 9.47 µg/mL) | 4 | 1 µM (≈ 2.37 µg/mL) | 1 | 32 | 5.537 µmol/L | 6 µmol/L | MIC S. aureus ATCC 12600 (+) (S. aureus ATCC 12600; ATCC 12600, 24 h): 8 µmol/L (≈ 18.9 µg/mL); MIC S. aureus ATCC 12600 (+) (S. aureus ATCC 12600; Fig 2a source data, Gram-positive, broth microdilution): 8; MIC, P. aeruginosa PA14 (-) (P. aeruginosa PA14; [5]): 16; MIC P. aeruginosa PA14 (−) (P. aeruginosa PA14; PA14, 24 h): 16 µM (≈ 37.9 µg/mL); MIC, P. aeruginosa PAO1 (-) (P. aeruginosa PAO1; [5]): 8; MIC P. aeruginosa PAO1 (−) (P. aeruginosa PAO1; PAO1, 24 h): 8 µM (≈ 18.9 µg/mL); haemolytic effects [3]: did show haemolytic effects; MIC S. aureus ATCC BAA-1556 – MRSA (+) ([4]; ATCC BAA-1556, 24 h): 8 µM (≈ 18.9 µg/mL); MIC, S. aureus ATCC BAA-1556 - MRSA (+) ([4]; Fig 2a source data, Gram-positive, MRSA, broth microdilution): 8 |
